Source: patent US8124793B2, “Derivatives of ethylene methanedisulfonate as cancer chemotherapeutic agents” (priority 2007, dated 2012)

How the values were obtained:
Type in all cases: cell-based
UACC-62 = test: NCI screen, growth of human tumor cells: Melanoma UACC-62
Method: (§1) In the NCI screening process, each compound was tested and described by a minimum of 60 data points. The test data include, but are not limited to the type of cancer, the molar concentration used in the screen, and the percent growth of the cancer. In some cases, NMR and elemental analysis were used for structural assignment.

NCI-H460 = test: NCI screen, growth of human tumor cells: Non-Small Cell Lung NCI-H460; conditions: NCI-H460 (Non-Small Cell Lung), 10^−4 molar
Method: as §1

U-251 = test: NCI screen, growth of human tumor cells: CNS Cancer U-251
Method: as §1

OVCAR-8 = test: NCI screen, growth of human tumor cells: Ovarian Cancer OVCAR-8; conditions: OVCAR-8 (Ovarian Cancer), 10^−4 molar
Method: as §1

SF-539 = test: NCI screen, growth of human tumor cells: CNS Cancer SF-539; conditions: SF-539 (CNS Cancer), 10^−4 molar
Method: as §1

SF-268 = test: NCI screen, growth of human tumor cells: CNS Cancer SF-268; conditions: SF-268 (CNS Cancer), 10^−4 molar
Method: as §1

ACHN = test: NCI screen, growth of human tumor cells: Renal Cancer ACHN; conditions: ACHN (Renal Cancer), 10^−4 molar
Method: as §1

human cancer cells = test: NCI screen summary over the cancers tested (negative growth of human cancer cells); conditions: 10^−4 M conc.; cancers with negative growth / cancers tested
Method: as §1
The derivatives in the tables are grouped using the same category as in the tables 1-6.

SW620 = test: NCI screen, growth of human tumor cells: Colon Cancer SW620; conditions: SW620 (Colon Cancer), 10^−4 molar
Method: as §1

NCI-H23 = test: NCI screen, growth of human tumor cells: Non-Small Cell Lung NCI-H23; conditions: NCI-H23 (Non-Small Cell Lung), 10^−4 molar
Method: as §1

LOXIMVI = test: NCI screen, growth of human tumor cells: Melanoma LOXIMVI; conditions: LOXIMVI (Melanoma), 10^−4 molar
Method: as §1

OVCAR-4 = test: NCI screen, growth of human tumor cells: Ovarian Cancer OVCAR-4; conditions: OVCAR-4 (Ovarian Cancer), 10^−4 molar
Method: as §1

MDA-MB-231/ATCC = test: NCI screen, growth of human tumor cells: Breast Cancer MDA-MB-231/ATCC; conditions: MDA-MB-231/ATCC (Breast Cancer), 10^−4 molar
Method: as §1

OVCAR-3 = test: NCI screen, growth of human tumor cells: Ovarian Cancer OVCAR-3; conditions: OVCAR-3 (Ovarian Cancer), 10^−4 molar
Method: as §1

DU-145 = test: NCI screen, growth of human tumor cells: Prostate Cancer DU-145; conditions: DU-145 (Prostate Cancer), 10^−4 molar
Method: as §1

SF-295 = test: NCI screen, growth of human tumor cells: CNS Cancer SF-295; conditions: SF-295 (CNS Cancer), 10^−4 molar
Method: as §1

HCT-15 = test: NCI screen, growth of human tumor cells: Colon Cancer HCT-15
Method: as §1

SK-MEL-28 = test: NCI screen, growth of human tumor cells: Melanoma SK-MEL-28; conditions: SK-MEL-28 (Melanoma), 10^−4 molar
Method: as §1

M14 = test: NCI screen, growth of human tumor cells: Melanoma M14; conditions: M14 (Melanoma), 10^−4 molar
Method: as §1

HCT-116 = test: NCI screen, growth of human tumor cells: Colon Cancer HCT-116; conditions: HCT-116, 10^−4 molar
Method: as §1

MCF 7 = test: NCI screen, growth of human tumor cells: Breast Cancer MCF 7; conditions: MCF 7 (Breast Cancer), 10^−4 molar
Method: as §1

SK-MEL-5 = test: NCI screen, growth of human tumor cells: Melanoma SK-MEL-5; conditions: SK-MEL-5 (Melanoma), 10^−4 molar
Method: as §1

RXF-393 = test: NCI screen, growth of human tumor cells: Renal Cancer RXF-393; conditions: RXF-393 (Renal Cancer), 10^−4 molar
Method: as §1

MDA-MB-435 = test: NCI screen, growth of human tumor cells: Breast Cancer MDA-MB-435; conditions: MDA-MB-435, 10^−4 molar
Method: as §1

HS 578T = test: NCI screen, growth of human tumor cells: Breast Cancer HS 578T; conditions: HS 578T (Breast Cancer), 10^−4 molar
Method: as §1

BT-549 = test: NCI screen, growth of human tumor cells: Breast Cancer BT-549; conditions: BT-549 (Breast Cancer), 10^−4 molar
Method: as §1

RPMI-8226 = test: NCI screen, growth of human tumor cells: Leukemia RPMI-8226; conditions: RPMI-8226 (Leukemia), 10^−4 molar
Method: as §1

SN12C = test: NCI screen, growth of human tumor cells: Renal Cancer SN12C; conditions: SN12C (Renal Cancer), 10^−4 molar
Method: as §1

CAKI-1 = test: NCI screen, growth of human tumor cells: Renal Cancer CAKI-1; conditions: CAKI-1 (Renal Cancer), 10^−4 molar
Method: as §1

HOP-92 = test: NCI screen, growth of human tumor cells: Non-Small Cell Lung HOP-92; conditions: HOP-92 (Non-Small Cell Lung), 10^−4 molar
Method: as §1

UO-31 = test: NCI screen, growth of human tumor cells: Renal Cancer UO-31; conditions: UO-31 (Renal Cancer), 10^−4 molar
Method: as §1

PC-3 = test: NCI screen, growth of human tumor cells: Prostate Cancer PC-3; conditions: PC-3 (Prostate Cancer), 10^−4 molar
Method: as §1

UACC-257 = test: NCI screen, growth of human tumor cells: Melanoma UACC-257
Method: as §1

SR = test: NCI screen, growth of human tumor cells: Leukemia SR; conditions: SR (Leukemia), 10^−4 molar
Method: as §1

HL-60 (TB) = test: NCI screen, growth of human tumor cells: Leukemia HL-60 (TB); conditions: HL-60 (TB) (Leukemia), 10^−4 molar
Method: as §1

K562 = test: NCI screen, growth of human tumor cells: Leukemia K562; conditions: K562 (Leukemia), 10^−4 molar
Method: as §1

MCF7/ADR-RES = test: NCI screen, growth of human tumor cells: Breast Cancer MCF7/ADR-RES; conditions: MCF7/ADR-RES (Breast Cancer), 10^−4 molar
Method: as §1

HOP-62 = test: NCI screen, growth of human tumor cells: Non-Small Cell Lung HOP-62; conditions: HOP-62 (Non-Small Cell Lung), 10^−4 molar
Method: as §1

IGROVI = test: NCI screen, growth of human tumor cells: Ovarian Cancer IGROVI; conditions: IGROVI (Ovarian Cancer), 10^−4 molar
Method: as §1

COLO205 = test: NCI screen, growth of human tumor cells: Colon Cancer COLO205; conditions: COLO205 (Colon Cancer), 10^−4 molar
Method: as §1

SNB-19 = test: NCI screen, growth of human tumor cells: CNS Cancer SNB-19; conditions: SNB-19 (CNS Cancer), 10^−4 molar
Method: as §1

CCRF-CEM = test: NCI screen, growth of human tumor cells: Leukemia CCRF-CEM; conditions: CCRF-CEM (Leukemia), 10^−4 molar
Method: as §1

HT29 = test: NCI screen, growth of human tumor cells: Colon Cancer HT29; conditions: HT29 (Colon Cancer), 10^−4 molar
Method: as §1

KM12 = test: NCI screen, growth of human tumor cells: Colon Cancer KM12; conditions: KM12 (Colon Cancer), 10^−4 molar
Method: as §1

OVCAR-5 = test: NCI screen, growth of human tumor cells: Ovarian Cancer OVCAR-5; conditions: OVCAR-5 (Ovarian Cancer), 10^−4 molar
Method: as §1

NCI-H226 = test: NCI screen, growth of human tumor cells: Non-Small Cell Lung NCI-H226; conditions: NCI-H226 (Non-Small Cell Lung), 10^−4 molar
Method: as §1

786-0 = test: NCI screen, growth of human tumor cells: Renal Cancer 786-0; conditions: 786-0 (Renal Cancer), 10^−4 molar
Method: as §1

Row | SMILES | percent of growth of human tumor cells (NCI-H460) [%] | percent of growth of human tumor cells (OVCAR-8) [%] | percent of growth of human tumor cells (SF-539) [%] | percent of growth of human tumor cells (SF-268) [%] | Percentage of cancers showing negative growth cancers tested (human cancer cells) | percent of growth of human tumor cells (SW620) [%] | percent of growth of human tumor cells (NCI-H23) [%] | percent of growth of human tumor cells (MDA-MB-231/ATCC) [%] | percent of growth of human tumor cells (DU-145) [%] | percent of growth of human tumor cells (SK-MEL-28) [%] | % Growth (HCT-116) [%] | percent of growth of human tumor cells (MCF 7) [%] | percent of growth of human tumor cells (RXF-393) [%] | percent of growth of human tumor cells (HS 578T) [%] | percent of growth of human tumor cells (BT-549) [%] | percent of growth of human tumor cells (RPMI-8226) [%] | percent of growth of human tumor cells (SN12C) [%] | percent of growth of human tumor cells (HOP-92) [%] | percent of growth of human tumor cells (UO-31) [%] | percent of growth of human tumor cells (PC-3) [%] | other results
1 | O=C1C(Cl)=C(C2S(=O)(=O)OCCOS2(=O)=O)C(=O)c2ccccc21 [NSC 731260, ethylene 3-chloro-1,4-naphtho-2-quinoylmethanedisulfonate] | 4 | 18 | 1 | 10 | 10^−4 M conc. = 16/37 = 43% | 1 | −54 | −15 | 12 | −5 | −89 | 6 | 28 | 8 | −32 | −36 | −12 | −3 | 30 | 9 | % Growth (UACC-62; UACC-62, 10^−4 molar): −86%; percent of growth of human tumor cells (U-251; U-251 (CNS Cancer), 10^−4 molar): 2%; percent of growth of human tumor cells (ACHN): −12%; percent of growth of human tumor cells (LOXIMVI): −43%; percent of growth of human tumor cells (OVCAR-4): 11%; percent of growth of human tumor cells (OVCAR-3): 28%; percent of growth of human tumor cells (SF-295): −46%; percent of growth of human tumor cells (HCT-15; HCT-15 (Colon Cancer), 10^−4 molar): 17%; percent of growth of human tumor cells (M14): −58%; percent of growth of human tumor cells (SK-MEL-5): −54%; % Growth (MDA-MB-435): −79%; percent of growth of human tumor cells (CAKI-1): 18%; % Growth (UACC-257; UACC-257, 10^−4 molar): −74%; percent of growth of human tumor cells (SR): 15%; percent of growth of human tumor cells (HL-60 (TB)): 13%; percent of growth of human tumor cells (K562): 20%; percent of growth of human tumor cells (MCF7/ADR-RES): 25%; percent of growth of human tumor cells (HOP-62): −56%
2 | CC=CC(=O)C1(Cc2ccc3c(c2)C(=O)c2ccccc2C3=O)S(=O)(=O)OCCOS1(=O)=O [NSC 731263] | 2 | −39 | −23 | −24 | 10^−4 M conc. = 18/36 = 50% | −38 | 31 | −33 | 1 | −23 | −100 | −17 | −45 | −18 | −20 | −7 | −53 | −16 | 1 | 11 | percent of growth of human tumor cells (UACC-62; UACC-62 (Melanoma), 10^−4 molar): 16%; % Growth (U-251; U251, 10^−4 molar): −85%; percent of growth of human tumor cells (IGROVI): 3%; percent of growth of human tumor cells (COLO205): 5%; percent of growth of human tumor cells (SNB-19): 10%; % Growth (HCT-15; HCT-15, 10^−4 molar): −65%; percent of growth of human tumor cells (CCRF-CEM): 15%; percent of growth of human tumor cells (HT29): 1%; percent of growth of human tumor cells (KM12): 2%; percent of growth of human tumor cells (OVCAR-5): 20%; percent of growth of human tumor cells (UACC-257; UACC-257 (Melanoma), 10^−4 molar): −20%; percent of growth of human tumor cells (SR): 24%; percent of growth of human tumor cells (K562): 12%; percent of growth of human tumor cells (MCF7/ADR-RES): 11%; percent of growth of human tumor cells (HOP-62): −38%; percent of growth of human tumor cells (NCI-H226): 10%; percent of growth of human tumor cells (786-0): 1%
